The record followed here is patent US20240316047A1, “INHIBITORS OF RNA HELICASE DHX9 AND USES THEREOF” (ACCENT THERAPEUTICS, INC., priority 2022, published 2024).

This assay concerns the target Human recombinant DHX9 protein (Homo sapiens (Human), UniProt Q08211). The assay can be described thus: DHX9 ATPase assay (ADP-Glo). Particulars: for IC50: read-out: DHX9 Biochemical Inflection Point. The format is biochemical.

Human recombinant DHX9 protein, sequence (Q08211 whole entry): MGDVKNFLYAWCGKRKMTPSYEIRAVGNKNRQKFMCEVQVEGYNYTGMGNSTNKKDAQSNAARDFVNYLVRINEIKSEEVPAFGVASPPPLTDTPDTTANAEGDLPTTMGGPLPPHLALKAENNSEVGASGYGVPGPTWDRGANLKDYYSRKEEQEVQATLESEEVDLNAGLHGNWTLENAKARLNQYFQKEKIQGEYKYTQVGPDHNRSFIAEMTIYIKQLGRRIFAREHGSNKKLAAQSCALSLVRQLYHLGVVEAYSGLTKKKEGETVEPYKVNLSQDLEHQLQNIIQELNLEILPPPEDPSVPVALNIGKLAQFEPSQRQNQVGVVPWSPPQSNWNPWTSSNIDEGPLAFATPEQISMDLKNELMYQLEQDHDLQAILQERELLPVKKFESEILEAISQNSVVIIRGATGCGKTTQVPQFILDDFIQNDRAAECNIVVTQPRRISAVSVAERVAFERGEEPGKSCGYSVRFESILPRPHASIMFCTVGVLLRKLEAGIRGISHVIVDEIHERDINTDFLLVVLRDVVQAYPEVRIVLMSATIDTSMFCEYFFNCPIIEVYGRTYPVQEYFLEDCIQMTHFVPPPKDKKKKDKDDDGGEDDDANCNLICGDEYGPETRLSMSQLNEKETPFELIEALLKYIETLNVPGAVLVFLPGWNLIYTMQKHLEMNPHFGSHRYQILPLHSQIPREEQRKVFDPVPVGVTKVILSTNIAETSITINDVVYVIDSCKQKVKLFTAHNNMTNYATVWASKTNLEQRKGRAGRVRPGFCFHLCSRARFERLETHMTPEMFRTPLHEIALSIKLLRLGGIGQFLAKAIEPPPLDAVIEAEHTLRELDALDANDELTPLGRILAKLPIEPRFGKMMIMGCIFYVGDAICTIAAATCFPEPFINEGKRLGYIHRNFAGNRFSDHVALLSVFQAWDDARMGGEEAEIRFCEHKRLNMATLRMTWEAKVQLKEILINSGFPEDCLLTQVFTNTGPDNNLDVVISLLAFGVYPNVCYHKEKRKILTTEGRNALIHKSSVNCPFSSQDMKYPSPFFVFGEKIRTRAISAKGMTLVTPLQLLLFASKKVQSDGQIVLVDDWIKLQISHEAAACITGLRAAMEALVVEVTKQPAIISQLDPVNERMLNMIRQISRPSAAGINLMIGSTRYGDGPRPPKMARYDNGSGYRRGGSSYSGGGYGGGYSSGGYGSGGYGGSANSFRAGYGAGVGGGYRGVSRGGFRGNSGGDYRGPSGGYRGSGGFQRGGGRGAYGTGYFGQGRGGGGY

Turning to `CCOc1cc(F)cnc1-c1cc(C(=O)Nc2cc(Cl)cc(NS(C)(=O)=O)c2)cn1C` [Example 561], the “DHX9 Biochemical Max Inhibition” value is 69.7 and the IC50 was found to be 15.9 nM.
Turning to `CS(=O)(=O)Nc1cc(Cl)cc(NC(=O)c2cc(-c3ncc(F)cn3)n(CC(F)(F)F)c2)c1` [Example 562], the “DHX9 Biochemical Max Inhibition” value came out at 62.3 and the IC50 worked out at 64.5 nM.
Consider `COc1cnc(-c2cc(C(=O)Nc3cc(Cl)cc(NS(C)(=O)=O)c3)cn2CC(F)(F)F)nc1` [Example 563], for which the “DHX9 Biochemical Max Inhibition” value was 66.9 and the IC50 stood at 71.3 nM.
Take `CS(=O)(=O)Nc1cc(Cl)cc(NC(=O)c2cc(-c3ncccc3F)n(CC(F)(F)F)c2)c1` [Example 564]: the “DHX9 Biochemical Max Inhibition” value is recorded as 77.8 and the IC50 was 70.1 nM.
As for `CCS(=O)(=O)Nc1cc(Cl)cc(NC(=O)c2cc(-c3ncc(OC(C)C)cn3)c(C)s2)c1` [Example 565], the “DHX9 Biochemical Max Inhibition” value is recorded as 60 and the IC50 came to 37.1 nM.
As for `CCS(=O)(=O)Nc1cc(Cl)cc(NC(=O)c2cc(-c3ncc(OC(C)(C)C)cn3)c(C)s2)c1` [Example 566], the “DHX9 Biochemical Max Inhibition” value was determined as 66 and the IC50 was 186 nM.
In the same order, the values of `Cn1cc(C(=O)Nc2cc(Cl)cc(NS(C)(=O)=O)c2)cc1-c1c(F)cc(F)c[n+]1[O-]` [Example 567] are 77 and 58.4 nM.
Regarding `COc1cc(F)cnc1-c1cc(C(=O)Nc2cc(Cl)cc(NS(C)(=O)=O)c2)cn1C` [Example 568, N-(3-chloro-5-methanesulfonamidophenyl)-5-(5-fluoro-3-methoxypyridin-2-yl)-1-methylpyrrole-3-carboxamide], the “DHX9 Biochemical Max Inhibition” value is reported as 77.3 and the IC50 stood at 7.9 nM.
With `Cn1cc(C(=O)Nc2cc(Cl)cc(NS(C)(=O)=O)c2)cc1-c1ccc(C(F)(F)F)cn1` [Example 569], the “DHX9 Biochemical Max Inhibition” value is 75.9 and the IC50 stood at 55.6 nM.
Take `Cn1cc(C(=O)Nc2cc(Cl)cc(NS(C)(=O)=O)c2)cc1-c1ccc(C#N)cn1` [Example 570]: the “DHX9 Biochemical Max Inhibition” value stood at 69.8 and the IC50 was found to be 21.4 nM.
Take `Cn1cc(C(=O)Nc2cc(Cl)cc(NS(C)(=O)=O)c2)cc1-c1ncc(C(F)(F)F)cn1` [Example 571]: the “DHX9 Biochemical Max Inhibition” value came out at 71.3 and the IC50 was 21.1 nM.
In the same order, the values of `CCOc1ccc(-c2cc(C(=O)Nc3cc(Cl)cc(NS(C)(=O)=O)c3)cn2C)nc1` [Example 572] are 73.3 and 11.2 nM.
In the same order, the values of `COc1ccc(-c2cc(C(=O)Nc3cc(Cl)cc(NS(C)(=O)=O)c3)cn2C)nc1` [Example 573] are 82.8 and 15.5 nM.
Consider `COCc1ccc(-c2cc(C(=O)Nc3cc(Cl)cc(NS(C)(=O)=O)c3)cn2C)nc1` [Example 574], for which the “DHX9 Biochemical Max Inhibition” value was determined as 80.6 and the IC50 turned out to be 7.5 nM.
For the molecule `Cn1cc(C(=O)Nc2cc(Cl)cc(NS(C)(=O)=O)c2)cc1-c1ccc(F)cn1` [Example 575], the “DHX9 Biochemical Max Inhibition” value was 76.2 and the IC50 was determined as 17.7 nM.
Take `Cn1cc(C(=O)Nc2cc(Cl)cc(NS(C)(=O)=O)c2)cc1-c1ccc(Cl)cn1` [Example 576]: the “DHX9 Biochemical Max Inhibition” value was 68.1 and the IC50 came out at 28.5 nM.
The corresponding values for `Cn1cc(C(=O)Nc2cc(Cl)cc(NS(C)(=O)=O)c2)cc1-c1ncc(Cl)cn1` [Example 577] are 91.5 and 24.9 nM.
The corresponding values for `Cc1cc(C(=O)Nc2cc(Cl)cc(NS(C)(=O)=O)c2)cn1-c1ncc(Cl)cn1` [Example 578] are 70.1 and 149 nM.
The corresponding values for `CCS(=O)(=O)Nc1cc(Cl)cc(NC(=O)c2cc(-c3ccc(F)cn3)n(C)c2)c1` [Example 579] are 65.2 and 31.1 nM.
Consider `Cc1cnc(-c2cc(C(=O)Nc3cc(Cl)cc(NS(C)(=O)=O)c3)cn2C)c(F)c1` [Example 580], for which the “DHX9 Biochemical Max Inhibition” value stood at 70.5 and the IC50 worked out at 23.9 nM.
Take `Cn1cc(C(=O)Nc2cc(Cl)cc(NS(=O)(=O)CCO)c2)cc1-c1ncc(F)cc1F` [Example 581]: the “DHX9 Biochemical Max Inhibition” value turned out to be 50.5 and the IC50 worked out at 99.1 nM.
The corresponding values for `Cc1sc(C(=O)Nc2cc(Cl)cc(NS(=O)(=O)CCO)c2)cc1-c1ncc(OC(C)C)cn1` [Example 582] are 49.9 and 287 nM.
On to `Cc1sc(C(=O)Nc2cc(Cl)cc(NS(C)(=O)=O)c2)cc1-c1ncc(O)cn1` [Example 583], for which the “DHX9 Biochemical Max Inhibition” value is given as 72.5 and the IC50 came out at 4.9 nM.
The corresponding values for `Cn1cc(C(=O)Nc2cc(Cl)cc(NS(C)(=O)=O)c2)cc1-c1ncccc1OCC1CC1` [Example 584] are 63.5 and 17 nM.
In the same order, the values of `Cc1sc(C(=O)Nc2cc(Cl)cc(NS(C)(=O)=O)c2)cc1-c1ncc(C#N)cn1` [Example 585] are 70.9 and 22.9 nM.
The corresponding values for `CCc1sc(C(=O)Nc2cc(Cl)cc(NS(C)(=O)=O)c2)cc1-c1ncccc1F` [Example 587] are 70.9 and 16.7 nM.
Consider `CCc1sc(C(=O)Nc2cc(Cl)cc(NS(C)(=O)=O)c2)cc1-c1ncc(F)cc1F` [Example 588], for which the “DHX9 Biochemical Max Inhibition” value is listed as 67.7 and the IC50 is 103 nM.
On to `CCc1sc(C(=O)Nc2cc(Cl)cc(NS(C)(=O)=O)c2)cc1-c1ccc(F)cn1` [Example 589], for which the “DHX9 Biochemical Max Inhibition” value was 69.7.
For the molecule `Cc1sc(C(=O)Nc2cc(Cl)cc(NS(C)(=O)=O)c2)cc1-c1ccc(N2CCN(C(=O)C3CC3)CC2)cn1` [Example 590, N-(3-chloro-5-methanesulfonamidophenyl)-4-[5-(4-cyclopropanecarbonylpiperazin-1-yl)pyridin-2-yl]-5-methylthiophene-2-carboxamide], the “DHX9 Biochemical Max Inhibition” value stood at 74.8 and the IC50 was determined as 5.9 nM.
For `Cn1cc(C(=O)Nc2cc(Cl)cc(NS(C)(=O)=O)c2)cc1-c1ccc(N2CCN(C(=O)C(C)(C)C)CC2)cn1` [Example 591], the “DHX9 Biochemical Max Inhibition” value turned out to be 65.9 and the IC50 came out at 18.3 nM.
In the same order, the values of `Cn1cc(C(=O)Nc2cc(Cl)cc(NS(C)(=O)=O)c2)cc1-c1ccc(N2CCN(C(=O)C3CCCC3)CC2)cn1` [Example 592] are 77.5 and 54.1 nM.
In the same order, the values of `Cn1cc(C(=O)Nc2cc(Cl)cc(NS(C)(=O)=O)c2)cc1-c1ccc(N2CCN(C(=O)C3CCC3)CC2)cn1` [Example 593] are 99.9 and 30 nM.
In the same order, the values of `Cn1cc(C(=O)Nc2cc(Cl)cc(NS(C)(=O)=O)c2)cc1-c1ccc(N2CCN(C(=O)C3CC3)CC2)cn1` [Example 594] are 80.1 and 10.9 nM.
Regarding `Cn1cc(C(=O)Nc2cc(Cl)cc(NS(C)(=O)=O)c2)cc1-c1ccc(N2CC(F)(F)C2)cn1` [Example 595, N-(3-chloro-5-methanesulfonamidophenyl)-5-[5-(3,3-difluoroazetidin-1-yl)pyridin-2-yl]-1-methyl-1H-pyrrole-3-carboxamide], the “DHX9 Biochemical Max Inhibition” value came to 69.35 and the IC50 was 17.5 nM.
